The text below walks through data of patent publication US20250368646A1, “TRICYCLIC FUSED WRN INHIBITORS” (Nimbus Wadjet, Inc., priority 2024, published 2025).

The test system of assay [1] is p21 induction in HCT 116 cells. Description: p21 induction in cells (in-cell western, p21/GAPDH ratio). It is filed as cell-based. To be noted: Homo sapiens; HCT 116 colon carcinoma cell line, 24 h compound incubation; percent activation vs internal reference WRN inhibitor; read-out: P21_EC50. As to the method: The colon carcinoma cell line HCT 116 was obtained from ATCC and cultured in growth medium consisting of Mccoy's 5A Medium (Gibco 16600108) supplemented with […] (Transgene FS201-02) and 100 units/mL penicillin-streptomycin (Gibco 15140122) and maintained at 37° C. under […]. On the day of seeding, 2,000 cells in 30 μL of culture media were plated per well to Poly-D-Lysine 384 Well Black Clear Plates (Biocoat 356663) and incubated overnight at 37° C. under 5% CO2. The following day, compounds were serially diluted in DMSO for a total of 11 test concentrations. The typical starting concentration of cpds was 10 μM with 2-fold dilutions. Next, 150 nL of diluted compound was added in duplicate to the assay plate, using an Echo 655 (Labcyte). The plate was centrifuged at 500 RPM for 1 min and then incubated at 37° C. under 5% CO2 for 24 h. After 24 h, medium was removed, and cells were fixed by adding 40 µL of 4% paraformaldehyde solution to each well and incubated for 20 min at room temperature. The plate was then washed 4 times with 100 μL per well of wash buffer (PBS with 0.1% Tween-20) using a microplate washer. Next, 30 μL of ice-cold methanol was added to each well and the plate was incubated at −20° C. for 10 min. The plate was washed 4 times with 100 μL per well of wash buffer by a microplate washer, then 30 μL per well of blocking buffer (Intercept PBS blocking buffer (LI-COR 927-70001) with 0.05% Tween-20) was added and the plate was incubated at room temperature with shaking for 2 h. Next, to each test well, 20 μL of primary antibody solution (p21 Waf1/CIP (12D1) Rabbit mAb (Cell Signaling Technologies 2947) diluted 1:1000 and GAPDH (D4C6R) Mouse mAb (Cell Signaling Technologies 97166) diluted 1:2000 in blocking buffer) was added and the plate was placed at 4° C., overnight. The following day, the plate was washed 5 times with 100 μL per well of wash buffer using a microplate washer for 5 min. 20 μL per well of secondary antibody (IRDye 680CW Goat anti-Mouse IgG (H+L) (LI-COR 926-68070) diluted 1: 2000 in Blocking Buffer and IRDye 800CW Goat anti-Rabbit IgG (H+L) (LI-COR 926-32211) diluted 1: 2000 in Blocking Buffer) was then added and the plate was stored for 2 h in the dark at room temperature with shaking. The plate was then washed 4 times with 100 μL per well of wash buffer again using a microplate washer. Finally, the p21 signal and the GAPDH signal were quantified using a LI-COR Odyssey CLx Imager machine reading at 800 nm and 700 nm, respectively. Each plate contained DMSO control (low control) and an internal reference WRN inhibitor (high control) respectively. For quantitation, the 800 nm/700 nm ratio was calculated for each well to give fold p21 induction and then percent activation for each compound well was calculated as follows (100×(ratio cpd well-ratio low control)/(ratio high control−ratio low control)). EC50 values for each compound were generated after non-linear regression curve fitting using commercially available software.

The target of assay [2] is T1, human Werner helicase (WRN-BV08, amino acids 517-1235 with L1074F point mutation) (Homo sapiens, UniProt Q14191, L1074F).
T1 construct: [pFastBac1-WRN-(517-1235 L1074F)-TEV-8His]; 8xHis (C, cleaved yes); TEV cleavage site (ENLYFQG) (C); made in house; host or cells: Sf9 insect cells (baculovirus, pFastBac)
The experiment in a line: ADP-Glo WRN helicase ATPase inhibition assay. Type of assay: biochemical. The note with it: 0.15 nM WRN, 5 μM ATP, 0.1 nM DNA duplex; 15 minutes preincubation, 60 minutes at 25° C.; read-out: ADP-Glo_hWRN_IC50. The source says:
Bovine skin gelatin (BSG), dimethyl sulfoxide (DMSO), Pluronic F-127 and tris(2-carboxyethyl)phosphine hydrochloride solution (TCEP) were purchased from Sigma-Aldrich (St. Louis, MO) at the highest level of purity possible. Bicine buffer solution was purchased from Alfa Aesar (Tewksbury, MA) and compound NSC-617145 was purchased from Tocris (Minneapolis, MN). DNA duplex was synthesized at BGI (Shenzhen, China) and was composed of strand 1 with the sequence 5′-[…]-3′ (SEQ ID NO.: 1) and strand 2 with the sequence 5′-[…]-3′ (SEQ ID NO.: 2). DNA strands were annealed by heating to 95° C. for 5 minutes followed by slow cooling to room temperature. Compounds in 100% DMSO (0.1 μl) were spotted into a 384-well white polystyrene Optiplate-384 (Perkin Elmer; Waltham, MA) assay plate using a LabCyte Echo 550 (Agilent; Santa Clara, CA). DMSO (0.1 μl) was added to columns 12, rows A-H and column 24, rows I-P for the maximum signal control. Compound NSC-617145 (0.1 μl) was added to columns 12, rows I-P and 24, rows A-H for the minimum signal control (100% inhibition). Compounds/DMSO were preincubated for 15 minutes at 25° C. with 5 μl 2×WRN (BV08), prepared as described below, in assay buffer containing 20 mM Bicine (pH=7.5), 1 mM MgCl2, 10 mM KCl, 0.1% Pluronic F-127, 0.005% BSG, 1 mM TCEP. The reaction was initiated by the addition of 5 μl 2× substrate mixture in assay buffer and incubated for 60 minutes at 25° C. The final concentrations of the assay components were 0.15 nM WRN, 5 μM ATP, and 0.1 nM DNA duplex. The final DMSO concentration was 1% and the reference compound concentration (NSC-617145) used for the minimal signal control was 20 μM. The reaction was stopped by the addition of the ADP-Glo Kit components (Promega; Madison, WI) as directed and the relative luminescence units (RLU) were read on an Envision 2104 (Perkin Elmer; Waltham, MA). % inhibition calculation:
Where RLU=relative luminescence units, sample=signal in sample well, and MIN and MAX are the respective minimum and maximum signal controls.
Four-Parameter IC50 Fit Equation:
Where top and bottom are normally allowed to float but may be fixed at 100 or 0 respectively in a 3-parameter fit. Y is the % inhibition and X is the compound concentration.
Molecular Biology and virus production. The DNA encoding human Werner helicase (Uniprot Q14191, amino acids 517-1235 with L1074F point mutation) was generated with codon-optimization for E. coli expression and subcloned into the pFastBac vector with a TEV cleavable 8×His tag (SEQ ID NO: 5) (WRN-BV08). The baculovirus from the expression plasmid WRN-BV08 was generated from transfection and amplification following the manufacturer's instructions.
Sf9 cells grown in SF900II media were infected with 1:200 WRN-BV08 P2 virus and incubated for protein expression for 72 h at 27° C. The WRN protein was purified using the following protocol. The cell pellets were thawed and resuspended in buffer A (50 mM Tris, pH 7.5, 500 mM NaCl, 1 mM TCEP, 10% Glycerol) supplemented with 0.5% CHAPS, 1 mM PMSF, […] Leupeptin, 1 μg/ml Pepstatin, and the Pierce Universal Nuclease and cocktail tablet. Cleared lysates were loaded onto a Ni Sepharose™ excel column and washed with buffer A and bound protein was eluted with buffer A supplemented with 300 mM imidazole. The eluted protein was dialyzed against buffer A and digested by His-tagged TEV (1:5 ratio) overnight at 4° C. ZnCl2 was added into the sample at final 15 μM before loading onto a second Ni Sepharose™ excel column. Untagged WRN protein was eluted from the column with buffer A supplemented with 20 mM imidazole, dialyzed overnight into buffer B (50 mM Tris, pH 7.5, 1 mM TCEP, 10% Glycerol) supplemented with 150 mM NaCl and loaded onto a Heparin column. Proteins were eluted with a step gradient of buffer B supplemented with 150 mM, 200 mM, 300 mM and 500 mM NaCl. […]
(In ADP-Glo the light output rises with the ADP produced.)

T1 sequence (Q14191 with tags, fused parts or gaps L1074F): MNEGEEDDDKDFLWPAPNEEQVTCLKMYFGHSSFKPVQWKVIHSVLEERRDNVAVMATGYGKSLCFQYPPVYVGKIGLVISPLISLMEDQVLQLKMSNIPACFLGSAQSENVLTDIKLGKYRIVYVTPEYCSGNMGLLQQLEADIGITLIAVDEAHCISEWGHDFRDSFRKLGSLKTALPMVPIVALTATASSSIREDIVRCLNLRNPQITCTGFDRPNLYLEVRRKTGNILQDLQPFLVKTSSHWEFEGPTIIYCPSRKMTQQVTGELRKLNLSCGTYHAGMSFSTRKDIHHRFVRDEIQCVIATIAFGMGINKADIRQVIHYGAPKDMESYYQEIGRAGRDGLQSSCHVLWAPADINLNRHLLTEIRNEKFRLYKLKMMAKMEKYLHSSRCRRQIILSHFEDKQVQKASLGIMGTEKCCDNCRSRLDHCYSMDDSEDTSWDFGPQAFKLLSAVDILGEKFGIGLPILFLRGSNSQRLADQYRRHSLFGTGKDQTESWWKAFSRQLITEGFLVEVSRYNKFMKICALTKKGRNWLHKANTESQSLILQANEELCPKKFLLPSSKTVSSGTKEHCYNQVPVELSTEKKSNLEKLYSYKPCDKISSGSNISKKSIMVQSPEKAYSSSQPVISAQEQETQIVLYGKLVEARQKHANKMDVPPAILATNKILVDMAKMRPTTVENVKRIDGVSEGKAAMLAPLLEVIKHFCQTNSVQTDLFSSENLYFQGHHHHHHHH

Regarding `COc1cc(-n2nc3c(=O)c(N4CCN(C(=O)c5ncnc(C)c5O)[C@H]5CC[C@@H]54)c4n(c3n2)[C@H](C(=O)Nc2ccc(C(F)(F)F)cc2F)C[C@@H]4C)ccn1` (single isomer, unassigned) [Compound I-6], in assay [1], the EC50 is at most 0.5 µM. The IC50 in assay [2] was at most 0.005 µM.

Take `Cc1ncnc(C(=O)N2CCN(c3c4n(c5nn(C6CC6)nc5c3=O)[C@H](C(=O)Nc3ccc(C(F)(F)F)cc3Cl)C[C@@H]4C)[C@H]3CC[C@@H]32)c1O` (single isomer, unassigned) [Compound I-22]: the EC50 in assay [1] is over 5 µM. Moreover, the IC50 in assay [2] lay in the range of 0.1 to 0.5 µM. The matching figures for `Cc1cnc2c(n1)c(=O)c(N1CCN(C(=O)c3ncnc(C)c3O)[C@H]3CC[C@@H]31)c1n2[C@@H](C(=O)Nc2ccc(C(F)(F)F)cc2Cl)C[C@H]1C` (single isomer, unassigned) [Compound I-8]: over 5 µM and 0.1 to 0.5 µM. The matching figures for `COc1cc(-n2nc3c(=O)c(N4CCN(C(=O)c5ncnc(C)c5O)[C@H]5CC[C@@H]54)c4n(c3n2)[C@H](C(=O)NC23CC(C5CC5)(C2)C3)C[C@H]4C)ccn1` (single isomer, unassigned) [Compound I-3]: 0.5 to 2 µM and 0.05 to 0.1 µM. For the compound `Cc1ncnc(C(=O)N2CCN(c3c4n(c5nn(C6CC6)nc5c3=O)[C@@H](C(=O)Nc3ccc(C(F)(F)F)cc3Cl)C[C@@H]4C)[C@H]3CC[C@@H]32)c1O` (relative stereo) [Compound I-28, (6R*,8R**)-N-[2-chloro-4-(trifluoromethyl)phenyl]-2-cyclopropyl-5-[(1S,6S)-5-(5-hydroxy-6-methylpyrimidine-4-carbonyl)-2,5-diazabicyclo[4.2.0]octan-2-yl]-6-methyl-4-oxo-2H,4H,6H,7H,8H-[1,2,3]triazolo[4,5-e]indolizine-8-carboxamide], the EC50 in assay [1] lay in the range of 0.5 to 2 µM. For the same compound, in assay [2], the IC50 lay within 0.005 to 0.05 µM. The matching figures for `COc1cc(-n2nc3c(=O)c(N4CCN(C(=O)c5ncnc(C)c5O)[C@H]5CC[C@@H]54)c4n(c3n2)[C@@H](C(=O)Nc2ccc(C(F)(F)F)cc2F)C[C@H]4C)ccn1` (single isomer, unassigned) [Compound I-10]: 2 to 5 µM and 0.1 to 0.5 µM. For `Cc1ncnc(C(=O)N2CCN(c3c4n(c5nn(C6=CCOCC6)nc5c3=O)[C@@H](C(=O)Nc3ccc(C(F)(F)F)cc3Cl)C[C@H]4C)[C@H]3CC[C@@H]32)c1O` (single isomer, unassigned) [Compound I-23] the same measures were at most 0.5 µM and at most 0.005 µM. Turning to `COc1cc(-n2nc3c(=O)c(N4CCN(C(=O)c5ncnc(C)c5O)[C@H]5CC[C@@H]54)c4n(c3n2)[C@H](C(=O)Nc2ccc(C(F)(F)F)cc2Cl)C[C@H]4C)ccn1` (single isomer, unassigned) [Compound I-13], in assay [2], the IC50 was at most 0.005 µM. For the compound `Cc1nc2c(=O)c(N3CCN(C(=O)c4ncnc(C)c4O)[C@H]4CC[C@@H]43)c3n(c2nc1C)[C@@H](C(=O)Nc1ccc2c(c1Cl)OC(F)(F)O2)C[C@H]3C` [Compound I-26, (7R,9R)—N-(4-chloro-2,2-difluoro-2H-1,3-benzodioxol-5-yl)-6-[(1S,6S)-5-(5-hydroxy-6-methylpyrimidine-4-carbonyl)-2,5-diazabicyclo[4.2.0]octan-2-yl]-2,3,7-trimethyl-5-oxo-5H,7H,8H,9H-pyrazino[2,3-e]indolizine-9-carboxamide], the EC50 in assay [1] was at most 0.5 µM. For the compound `COc1cc(-n2nc3c(=O)c(N4CCN(C(=O)c5ncnc(C)c5O)[C@H]5CC[C@@H]54)c4n(c3n2)[C@H](C(=O)Nc2ccc(C(F)(F)F)cc2F)C[C@H]4C)ccn1` (single isomer, unassigned) [Compound I-16], the EC50 in assay [1] fell in the range of 0.5 to 2 µM. Further, the IC50 in assay [2] was in the range of 0.1 to 0.5 µM. For `COc1cc(-n2nc3c(=O)c(N4CCN(C(=O)c5ncnc(C)c5O)[C@H]5CC[C@@H]54)c4n(c3n2)[C@@H](C(=O)Nc2ccc(C(F)(F)F)cc2Cl)C[C@@H]4C)ccn1` (single isomer, unassigned) [Compound I-14] the same measures were at most 0.5 µM and 0.005 to 0.05 µM. The matching figures for `Cc1cnc2c(n1)c(=O)c(N1CCN(C(=O)c3ncnc(C)c3O)[C@H]3CC[C@@H]31)c1n2[C@H](C(=O)Nc2ccc(C(F)(F)F)cc2Cl)C[C@@H]1C` (single isomer, unassigned) [Compound I-7]: at most 0.5 µM and at most 0.005 µM. For `Cc1cnc2c(n1)c(=O)c(N1CCN(C(=O)c3ncnc(C)c3O)[C@H]3CC[C@@H]31)c1n2[C@@H](C(=O)Nc2ccc(C(F)(F)F)cc2Cl)C[C@@H]1C` (single isomer, unassigned) [Compound I-12] the same measures were over 5 µM and over 0.5 µM. As to `Cc1cnc2c(n1)c(=O)c(N1CCN(C(=O)c3ncnc(C)c3O)[C@H]3CC[C@@H]31)c1n2[C@H](C(=O)Nc2ccc(C(F)(F)F)cc2Cl)C[C@H]1C` (single isomer, unassigned) [Compound I-11], the EC50 in assay [1] is at most 0.5 µM. Further, the IC50 in assay [2] is at most 0.005 µM.
